Reference: PubChem BioAssay AID651878 (Vanderbilt Specialized Chemistry Center, 2012)
Calls of active or inactive are those of the source.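 Rule for the calls: active = Positive modulators of the M5 receptor in a calcium signal test, half-maximal potency under 10 µM; inactive = the rest.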

Target: Muscarinic acetylcholine receptor M5 (Homo sapiens) (UniProt P08912)
Assay: potentiation of ACh response at human M5 – cell-based, concentration-response curve, dose response (AID 651878)
Conditions: CHO-K1 hM5, Fluo-4 calcium flux, ACh EC20 potentiation; for % ACh max response: at 31.6 µM (top of the series)

Sequence of Muscarinic acetylcholine receptor M5 (Homo sapiens) (P08912 whole entry, looked up): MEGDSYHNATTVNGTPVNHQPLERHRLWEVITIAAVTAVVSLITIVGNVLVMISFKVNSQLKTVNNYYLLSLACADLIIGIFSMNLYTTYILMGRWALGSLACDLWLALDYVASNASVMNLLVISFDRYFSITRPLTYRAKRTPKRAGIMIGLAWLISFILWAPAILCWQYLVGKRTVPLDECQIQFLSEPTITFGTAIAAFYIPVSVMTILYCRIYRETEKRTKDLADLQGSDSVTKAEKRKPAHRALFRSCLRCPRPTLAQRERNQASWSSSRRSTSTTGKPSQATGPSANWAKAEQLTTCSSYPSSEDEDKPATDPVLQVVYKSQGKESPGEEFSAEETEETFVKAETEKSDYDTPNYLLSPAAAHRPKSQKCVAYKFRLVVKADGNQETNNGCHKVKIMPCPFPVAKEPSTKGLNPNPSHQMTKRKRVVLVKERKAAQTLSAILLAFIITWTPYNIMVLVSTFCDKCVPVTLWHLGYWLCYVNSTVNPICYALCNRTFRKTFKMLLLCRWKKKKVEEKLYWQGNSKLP

## COc1ccc(-c2ccc(CN3C(=O)C(=O)c4cc(OC(F)(F)F)ccc43)cc2)cn1
  % ACh max response: 71.9%

## COc1ccc(CN2C(=O)C(O)(C[N+](=O)[O-])c3cc(OC(F)(F)F)ccc32)cc1 (configuration not stated)
  EC50: 1380 nM

## COc1ccc(CN2C(=O)C3(COC3)c3cc(OC(F)(F)F)ccc32)cc1
  % ACh max response: inactive

## COc1ccc(CN2C(=O)C(O)(c3ccc(N(C)C)nc3)c3cc(OC(F)(F)F)ccc32)cc1 (configuration not stated)
  % ACh max response: inactive

## COc1ccc(CN2C(=O)C(O)(c3ccc(F)nc3)c3cc(OC(F)(F)F)ccc32)cc1 (configuration not stated)
  EC50: 2190 nM

## COc1ccc(CN2C(=O)C(CO)(CO)c3cc(OC(F)(F)F)ccc32)cc1
  % ACh max response: inactive

## COc1ncc(-c2ccc(CN3C(=O)C(=O)c4cc(OC(F)(F)F)ccc43)cc2)cn1
  % ACh max response: 74.4%
